Test results from patent publication US8551964B2, “Hsp90 inhibitors with modified toxicity” (The Regents of the University of Colorado, priority 2007, dated 2013).

Tests used:
[1] = Interaction of BA Hsp90 inhibitors with reduced glutathione (HPLC, LC-MS, [3H] glutathione)
Procedure: GM-glutathione conjugate formation was analyzed by HPLC and LC-MS. Briefly, 50 μM GM, 500 μM NADH, and 5 mM glutathione in the absence and presence of 11.8 μg rh-NQO1 and in the absence or presence of 2 μM ES936, were incubated in 50 mM potassium phosphate buffer, pH 7.4 (1 ml) at room temperature for 5 min. GM-glutathione conjugate formation was analyzed by HPLC at 270 nm (5 min).
Reaction conditions were: 50 μM 17DMAG, 500 μM NADH, and 5 mM glutathione, in the absence and presence of 11.8 μg rhNQO1 and in the absence or presence of 2 μM ES936, were incubated in 50 mM potassium phosphate buffer, pH 7.4 (1 ml) at room temperature for 3 h. 17DMAG-glutathione conjugate formation was analyzed by HPLC at 270 nm (3 h).
Reaction conditions were: 50 μM BA and 5 mM GSH were incubated in 50 mM potassium phosphate buffer, pH 7.4 (1 ml) at room temperature in the absence and presence of 11.8 μg of rhNQO1 and 500 μM NADH. BA-GSH conjugate formation was analyzed by HPLC at 270 nm and further confirmed by LC-MS. The amount of BA glutathione conjugate formation was quantified using [3H] glutathione.

[2] = cited from earlier work; for hepatotoxicity rank within the BA series: series GM, 17AAG, 17DMAG, 17AG, 17AEP-GA
[3] = target: T1, purified human cytochrome P450 reductase (Homo sapiens, UniProt P16435); experiment: Redox cycling catalyzed by purified human cytochrome P450 reductase; type: biochemical
T1 sequence (P16435 1-677): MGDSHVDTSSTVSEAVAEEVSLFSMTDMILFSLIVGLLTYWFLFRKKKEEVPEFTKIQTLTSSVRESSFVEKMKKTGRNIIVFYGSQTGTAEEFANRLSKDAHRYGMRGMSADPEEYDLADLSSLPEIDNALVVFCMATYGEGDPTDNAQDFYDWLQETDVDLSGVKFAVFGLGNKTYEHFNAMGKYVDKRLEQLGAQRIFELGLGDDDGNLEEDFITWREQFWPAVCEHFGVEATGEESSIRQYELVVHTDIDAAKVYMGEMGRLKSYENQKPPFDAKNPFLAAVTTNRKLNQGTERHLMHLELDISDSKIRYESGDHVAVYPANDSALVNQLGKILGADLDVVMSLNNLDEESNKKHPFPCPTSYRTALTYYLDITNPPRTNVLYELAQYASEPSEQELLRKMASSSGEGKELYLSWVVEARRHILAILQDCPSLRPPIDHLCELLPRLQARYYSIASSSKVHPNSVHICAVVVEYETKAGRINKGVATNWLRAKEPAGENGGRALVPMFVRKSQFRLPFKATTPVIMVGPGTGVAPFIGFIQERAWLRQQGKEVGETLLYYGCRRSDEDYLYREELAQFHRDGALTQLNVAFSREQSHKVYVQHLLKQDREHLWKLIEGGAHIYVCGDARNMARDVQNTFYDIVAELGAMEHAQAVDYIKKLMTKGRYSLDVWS

[4] = target: T2, NADPH-cytochrome P450 reductase (human liver microsomes) (Homo sapiens, UniProt P16435); experiment: One-electron redox cycling of BAs in human liver microsomes (oxygen consumption rate); type: in vitro ADME; details: NADPH- or NADH-dependent, 50 μM BA
T2 construct: Using human and mouse liver microsomes and either NADPH or NADH as cofactors; from tissue; host or cells: human liver microsomes
T2 sequence (P16435 1-677): T1 sequence (P16435 1-677)
Procedure: (§1) Using human and mouse liver microsomes and either NADPH or NADH as cofactors, the relative one-electron redox cycling rates of BAs mediated by NADPH-cytochrome P450 reductase were determined by measuring the rates of oxygen consumption. The rates of oxygen consumption and NAD(P)H oxidation were measured as indicators of the relative redox cycling rates of BAs. […] The oxygen consumption rate was measured using a Clark electrode (air tight) over 10 min.

[5] = target: T3, NADPH-cytochrome P450 reductase (mouse liver microsomes) (Mus musculus, UniProt P37040); experiment: One-electron redox cycling of BAs in mouse liver microsomes (oxygen consumption rate); type: in vitro ADME; details: NADPH- or NADH-dependent, 50 μM BA
T3 construct: Using human and mouse liver microsomes and either NADPH or NADH as cofactors; from tissue; host or cells: mouse liver microsomes
T3 sequence (P37040 1-678): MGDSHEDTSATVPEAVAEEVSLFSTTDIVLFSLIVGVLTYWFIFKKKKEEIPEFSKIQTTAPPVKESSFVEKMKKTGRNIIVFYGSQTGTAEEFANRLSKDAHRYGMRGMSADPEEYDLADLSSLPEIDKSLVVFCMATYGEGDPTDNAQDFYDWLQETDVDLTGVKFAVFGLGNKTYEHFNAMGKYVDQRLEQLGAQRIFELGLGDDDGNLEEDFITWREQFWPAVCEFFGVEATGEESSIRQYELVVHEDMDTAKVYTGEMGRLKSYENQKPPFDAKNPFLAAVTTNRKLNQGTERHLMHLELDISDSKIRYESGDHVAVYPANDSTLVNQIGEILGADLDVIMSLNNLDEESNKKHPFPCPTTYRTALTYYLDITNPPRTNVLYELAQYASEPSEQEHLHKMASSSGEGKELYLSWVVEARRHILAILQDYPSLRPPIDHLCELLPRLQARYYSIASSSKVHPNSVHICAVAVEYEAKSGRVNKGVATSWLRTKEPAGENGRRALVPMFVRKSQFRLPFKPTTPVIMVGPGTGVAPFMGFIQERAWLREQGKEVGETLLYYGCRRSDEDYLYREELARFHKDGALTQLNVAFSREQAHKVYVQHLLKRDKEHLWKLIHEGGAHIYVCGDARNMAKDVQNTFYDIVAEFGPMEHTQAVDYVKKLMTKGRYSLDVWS
Procedure: as §1

[6] = 50 μM BA, 5 mM reduced glutathione, pH 7.4, room temperature

C=CCNC1=C2C[C@@H](C)C[C@H](OC)[C@H](O)[C@@H](C)/C=C(\C)[C@H](OC(N)=O)[C@@H](OC)/C=C\C=C(/C)C(=O)NC(=CC1=O)C2=O [17AAG, 17-(allylamino)-17-demethoxygeldanamycin]
formation of glutathione conjugate (speed, in words) [1, 6]: very slow | hepatotoxicity rank within the BA series [2]: least hepatotoxic

CO[C@H]1/C=C\C=C(/C)C(=O)NC2=CC(=O)C(NCCN3CCCC3)=C(C[C@@H](C)C[C@H](OC)[C@H](O)[C@@H](C)/C=C(\C)[C@@H]1OC(N)=O)C2=O [17AEP-GA, 17-demethoxy-17-[[2-(pyrrolidin-1-yl)ethyl]amino]-geldanamycin]
relative rate of glutathione conjugate formation (rank order in the series) [1, 6]: GM>17DMAG>17AEP-GA>17AAG and 17AG | fraction conjugated with glutathione ([1]; 50 μM BA, 5 mM reduced glutathione, pH 7.4, room temperature, within 10 h): about 90%

CO[C@H]1/C=C\C=C(/C)C(=O)NC2=CC(=O)C(N)=C(C[C@@H](C)C[C@H](OC)[C@H](O)[C@@H](C)/C=C(\C)[C@@H]1OC(N)=O)C2=O [17AG, 17-(amino)-17-demethoxygeldanamycin]
formation of glutathione conjugate (speed, in words) [1, 6]: very slow | relative rate of glutathione conjugate formation (rank order in the series) [1, 6]: GM>17DMAG>17AEP-GA>17AAG and 17AG

CO[C@H]1/C=C\C=C(/C)C(=O)NC2=CC(=O)C(NCCN(C)C)=C(C[C@@H](C)C[C@H](OC)[C@H](O)[C@@H](C)/C=C(\C)[C@@H]1OC(N)=O)C2=O [17DMAG, 17-demthoxy-17-[[2-(dimethylamino)ethyl]amino]-geldanamycin]
rate of redox cycling [3]: greatest rate | 17DMAGH2-SG conjugate detection [1, 6]: not detected | relative rate of glutathione conjugate formation (rank order in the series) [1, 6]: GM>17DMAG>17AEP-GA>17AAG and 17AG | 17DMAG-SG conjugate formed ([1]; 50 μM BA, 5 mM reduced glutathione, pH 7.4, room temperature, within 4 h): approximately 47 μM

COC1=C2C[C@@H](C)C[C@H](OC)[C@H](O)[C@@H](C)/C=C(\C)[C@H](OC(N)=O)[C@@H](OC)/C=C\C=C(/C)C(=O)NC(=CC1=O)C2=O [GM, geldanamycin]
relative rate of metabolism (one-electron redox cycling, oxygen consumption) [4]: relatively rapid rate | relative rate of metabolism (one-electron redox cycling, oxygen consumption) [5]: relatively rapid rate | relative rate of glutathione conjugate formation (rank order in the series) ([1]; 50 μM, pH 7.4): GM>17DMAG>17AEP-GA>17AAG and 17AG | GMH2-SG conjugate formed ([1]; 5 min, 50 μM, pH 7.4): approximately 45 μM | hepatotoxicity ([2]; administration, Phase I clinical trials): unacceptable hepatotoxicity | hepatotoxicity rank within the BA series [2]: most hepatotoxic
